Data on ten compounds can be found in paper PMC6958422 (Pharmaceuticals, 2019).

Where two headings read alike, the source gives them in different places.

The target of one series is T1, hA3 AR (Homo sapiens, UniProt P0DMS8).
T1 construct: expressed in transfected cells; host or cells: CHO cells
T1 sequence (P0DMS8 1-318): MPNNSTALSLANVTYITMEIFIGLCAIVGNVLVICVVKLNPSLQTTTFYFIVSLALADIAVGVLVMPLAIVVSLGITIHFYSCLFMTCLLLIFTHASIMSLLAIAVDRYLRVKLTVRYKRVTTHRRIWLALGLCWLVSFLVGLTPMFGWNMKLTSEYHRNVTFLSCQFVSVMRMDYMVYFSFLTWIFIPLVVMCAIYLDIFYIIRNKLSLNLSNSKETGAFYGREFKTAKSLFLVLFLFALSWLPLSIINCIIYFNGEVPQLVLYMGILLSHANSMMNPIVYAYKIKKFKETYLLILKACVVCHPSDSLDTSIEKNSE
Nature of the series: [125I]AB-MECA competition binding to hA3 CHO cell membranes. Particulars: for Ki: hA3 CHO cells, means ± SEM; for inhibition at 1 µM: percentage of inhibition at 1µM. The procedure:
(§1) CHO cells transfected with hA1, hA2A, hA2B, and hA3 ARs were grown adherently and maintained in Dulbecco’s modified Eagle’s medium (Sigma-Aldrich, Milan, Italy) with nutrient mixture F12, containing 10% fetal calf serum, penicillin (100 U/mL), streptomycin (100 μg/mL), l-glutamine (2 mM) and geneticin (G418; 0.2 mg/mL) at 37°C in 5% CO2/95% air until the use in cAMP assays. For membrane preparation, the culture medium was removed, and the cells were washed with phosphate-buffered saline and scraped off T75 flasks in ice-cold hypotonic buffer (5 mM Tris HCl, 1 mM EDTA, pH 7.4). The cell suspension was homogenized with a Polytron, centrifuged for 30 min at 40000 g at 4°C, and the resulting membrane pellet was used for competition binding experiments.
(§2) All synthesized compounds have been tested for their affinity to hA1, hA2A, and hA3 ARs. Competition experiments to hA1 ARs were carried out incubating 1 nM [^3H]-8-cyclopentyl-1,3-dipropylxanthine ([^3H]-DPCPX) with membrane suspension (50 μg of protein/100 μL) and different concentrations of the examined compounds at 25°C for 90 min in 50 mM Tris HCl, pH 7.4. […] Inhibition experiments to hA2A ARs were performed incubating the radioligand [^3H]-ZM241385 (4-(2-[7-Amino-2-(2-furyl)[1,2,4]triazolo[2,3-a][1,3,5]triazin-5-ylamino]ethyl)phenol) (1 nM) with the membrane suspension (50 μg of protein/100 μL) and different concentrations of the examined compounds for 60 min at 4°C in 50 mM Tris HCl (pH 7.4), 10 mM MgCl2. Non-specific binding was determined in the presence of ZM241385 (1 μM) and was about 20% of the total binding. Competition binding experiments to A3 ARs were carried out incubating the membrane suspension (50 μg of protein/100 μL) with 0.5 nM [^125I]-N^6-(4-aminobenzyl)-N-methylcarboxamidoadenosine ([^125I]-ABMECA) in the presence of different concentration of the examined compounds for an incubation time of 120 min at 4°C in 50 mM Tris HCl (pH 7.4), 10 mM MgCl2, and 1 mM EDTA. Non-specific binding was defined as binding in the presence of 1μM ABMECA and was always < 10% of the total binding. Bound and free radioactivity were separated by filtering the assay mixture through Whatman GF/B glass fiber filters using a Brandel cell harvester (Brandel Instruments, Unterföhring, Germany). The filter bound radioactivity was counted by Packard Tri Carb 2810 TR scintillation counter (Perkin Elmer, Boston, MA, USA).
(§3) The protein concentration was determined according to a Bio-Rad method with bovine albumin as a standard reference. Inhibitory binding constant (Ki) values were calculated from those of IC50 according to Cheng & Prusoff equation Ki = IC50/(1+[C*]/KD*), where [C*] is the concentration of the radioligand and KD* its dissociation constant. Ki and IC50 values were calculated by non-linear regression analysis using the equation for a sigmoid concentration-response curve (Graph-PAD Prism, San Diego, CA, USA).

The next series deals with T2, hA2A AR (Homo sapiens, UniProt P29274).
T2 construct: expressed in transfected cells; host or cells: CHO cells
Put plainly: [3H]ZM241385 competition binding to hA2A CHO cell membranes. Particulars: for Ki: [3H]ZM241385, hA2A CHO cells, means ± SEM; for I% hA2A: percentage of inhibition at 1µM, [3H]ZM241385. How it is done: as §1, §2, §3

Series [1] addresses T3, hA1 AR (Homo sapiens, UniProt P30542).
T3 construct: expressed in transfected cells; host or cells: CHO cells
T3 sequence (P30542 1-326): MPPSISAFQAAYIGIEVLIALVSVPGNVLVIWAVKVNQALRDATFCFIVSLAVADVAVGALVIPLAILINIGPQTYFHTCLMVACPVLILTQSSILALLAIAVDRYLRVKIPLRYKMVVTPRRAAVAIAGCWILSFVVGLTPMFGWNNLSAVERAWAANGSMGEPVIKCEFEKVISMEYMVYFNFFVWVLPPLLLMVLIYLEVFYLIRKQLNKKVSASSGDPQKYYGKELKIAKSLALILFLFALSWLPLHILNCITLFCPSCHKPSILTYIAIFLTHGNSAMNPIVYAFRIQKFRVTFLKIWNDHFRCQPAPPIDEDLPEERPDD
Put plainly: Modulation of Forskolin-stimulated cAMP levels in hA1 CHO cells. Particulars: Forskolin 5 µM; for EC50: means ± SEM of four experiments, read-out: EC50 (potency to increase Forskolin-stimulated cAMP levels, hA1 CHO cells); for Efficacy (modulation of Forskolin-stimulated cAMP, hA1 CHO cells): normalized to DPCPX (set at 100%). It is filed as cell-based. How it is done: (§4) The amino-3,5-dicyanopyridines 1–20 were tested for their affinity at hA1, hA2A, and hA3 ARs, stably transfected in Chinese Hamster Ovary (CHO) cells, and were also studied as hA2B agonists by evaluating their stimulatory effect on cAMP production in CHO cells, stably expressing the hA2B AR.
For membrane preparation, the culture medium was removed, and the cells were washed with phosphate-buffered saline and scraped off T75 flasks in ice-cold hypotonic buffer (5 mM Tris HCl, 1 mM EDTA, pH 7.4). The cell suspension was homogenized with a Polytron, centrifuged for 30 min at 40000 g at 4°C, and the resulting membrane pellet was used for competition binding experiments.
CHO cells transfected with hAR subtypes were washed with phosphate-buffered saline, detached with trypsin and centrifuged for 10 min at 200 g. […] At the end of the experiments, plates were read with the Perkin Elmer EnSight Multimode Plate Reader.

Series [2] deals with T4, hA2B AR (Homo sapiens, UniProt P29275).
T4 construct: expressed in transfected cells; host or cells: CHO cells
T4 sequence (P29275 1-332): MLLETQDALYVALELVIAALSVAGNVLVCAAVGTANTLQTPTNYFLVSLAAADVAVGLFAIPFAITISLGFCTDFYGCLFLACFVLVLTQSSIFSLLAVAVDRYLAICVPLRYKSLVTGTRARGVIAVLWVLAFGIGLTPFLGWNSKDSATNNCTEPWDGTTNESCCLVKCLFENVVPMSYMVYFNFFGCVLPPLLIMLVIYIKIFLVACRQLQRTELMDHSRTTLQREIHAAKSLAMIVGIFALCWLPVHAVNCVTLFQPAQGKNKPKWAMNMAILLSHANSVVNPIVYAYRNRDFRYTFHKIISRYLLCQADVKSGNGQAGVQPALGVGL
Put plainly: cAMP assay, stimulation of cAMP production in hA2B CHO cells (agonism). Type of series: cell-based. Conditions: for Emax at 1 µM: CHO, compound at 1µM, in comparison with NECA (1µM = 100%), read-out: Efficacy hA2B (cAMP assays) (converted); for EC50: hA2B CHO cells, means ± SEM of four assays. How it is done:
as §4, §1
CHO cells transfected with hAR subtypes were washed with phosphate-buffered saline, detached with trypsin and centrifuged for 10 min at 200 g. Cells were seeded in 96-well white half-area microplate (Perkin Elmer, Boston, USA) in a stimulation buffer composed of Hank Balanced Salt Solution (Sigma-Aldrich, Milan, Italy), 5 mM HEPES, 0.5 mM Ro 20-1724, and 0.1% BSA. cAMP levels were then quantified by using the AlphaScreen cAMP Detection Kit (Perkin Elmer) following the manufacturer’s instructions. At the end of the experiments, plates were read with the Perkin Elmer EnSight Multimode Plate Reader.

The target of series [3] is T3, hA1 AR. Nature of the series: [3H]DPCPX competition binding to hA1 CHO cell membranes. How it is done:
as §1, §2, §3

Series [4] has as its target T4, hA2B AR. Conditions: cited from earlier work.

T2 sequence (P29274 whole entry): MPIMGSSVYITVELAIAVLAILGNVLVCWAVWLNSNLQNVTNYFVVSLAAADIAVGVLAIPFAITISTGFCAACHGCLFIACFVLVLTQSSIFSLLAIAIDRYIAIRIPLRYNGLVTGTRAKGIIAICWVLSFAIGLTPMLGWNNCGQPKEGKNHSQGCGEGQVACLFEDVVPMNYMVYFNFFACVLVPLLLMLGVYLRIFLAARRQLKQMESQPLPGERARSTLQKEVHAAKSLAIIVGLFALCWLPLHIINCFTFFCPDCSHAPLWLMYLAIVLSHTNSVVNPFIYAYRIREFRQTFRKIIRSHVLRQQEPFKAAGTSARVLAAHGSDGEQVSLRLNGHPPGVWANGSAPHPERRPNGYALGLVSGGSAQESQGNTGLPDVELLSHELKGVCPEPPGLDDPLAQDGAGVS

For the compound `N#Cc1c(N)nc(SCc2ncc[nH]2)c(C#N)c1-c1ccc(F)cc1` [Compound 8, 2-Amino-4-(4-fluorophenyl)-6-[(1H-imidazol-2-ylmethyl)sulfanyl]pyridine-3,5-dicarbonitrile], the melting point is 223 to 225 °C (dec.). The Ki at hA3 AR was 410 ± 38 nM. Besides, on hA2A AR, the Ki is 139 ± 12 nM. Moreover, on hA1 AR [1], the EC50 worked out at 1.34 ± 0.11 nM and the “Efficacy (modulation of Forskolin-stimulated cAMP, hA1 CHO cells)” value stood at 34 ± 3%. Besides, on hA2B AR [2], the Emax at 1 µM was 76% and a half-maximal response (EC50) required 18 ± 2 nM. On hA1 AR [3], this compound yielded a Ki of 0.78 ± 0.08 nM.

`CCOc1ccc(-c2c(C#N)c(N)nc(SCc3ncc[nH]3)c2C#N)cc1` [Compound 5, 2-(((1H-Imidazol-2-yl)methyl)thio)-6-amino-4-(4-ethoxyphenyl)pyridine-3,5-dicarbonitrile]: the “Efficacy hA2B (cAMP assays)” value on hA2B AR [4] (at 1µM, in comparison with NECA (1µM = 100%)) is on record as 62%.

Turning to `CCCn1c(=O)c2[nH]c(C3CCCC3)nc2n(CCC)c1=O` [DPCPX, 8-Cyclopentyl-1,3-dipropylxanthine, reference compound], the “Efficacy (modulation of Forskolin-stimulated cAMP, hA1 CHO cells)” value at hA1 AR [1] was 100 ± 9%.

Compound `C=CCOc1ccc(-c2c(C#N)c(N)nc(SCc3ncc[nH]3)c2C#N)cc1` [Compound 3, 2-Amino-6-[(1H-imidazol-2-ylmethyl)sulfanyl]-4-[4-(prop-2-en-1-yloxy)phenyl]pyridine-3,5-dicarbonitrile] displayed an inhibition at 1 µM at hA3 AR of 8%. At hA2A AR, the “I% hA2A” value amounted to 17%. Moreover, on hA1 AR [1], the EC50 is 19.6 ± 1.7 nM and the “Efficacy (modulation of Forskolin-stimulated cAMP, hA1 CHO cells)” value is reported as 39 ± 4%. Further, at hA2B AR [2], the Emax at 1 µM is 56% and the concentration giving a half-maximal response (EC50) amounted to 27 ± 3 nM. In addition, on hA1 AR [3], the Ki is 16 ± 2 nM.

In the case of `N#Cc1c(N)nc(SCc2ncc[nH]2)c(C#N)c1-c1ccccc1` [LUF5833, 2-amino-6-[(1H-imidazol-2-ylmethyl)sulfanyl]-4-phenylpyridine-3,5-dicarbonitrile], the “Efficacy hA2B (cAMP assays)” value on hA2B AR [4] (in comparison with NECA) is 81%.

For the compound `Cc1c(C#N)c(N)nc(SCc2ncc[nH]2)c1C#N` [Compound 13, 2-Amino-6-[(1H-imidazol-2-ylmethyl)sulfanyl]-4-methylpyridine-3,5-dicarbonitrile], the melting point was 267 to 269 °C (dec.). Further, the Ki on hA3 AR amounted to 510 ± 53 nM. Moreover, at hA2A AR, the inhibition constant Ki stood at 331 ± 32 nM. Further, on hA2B AR [2], the Emax at 1 µM was 1% and the half-maximal effective concentration (EC50) was above 1000 nM. Besides, on hA1 AR [3], the Ki came out at 74 ± 8 nM.

Regarding `CSc1ccc(-c2c(C#N)c(N)nc(SCc3ncc[nH]3)c2C#N)cc1` [Compound 11, 2-Amino-6-[(1H-imidazol-2-ylmethyl)sulfanyl]-4-[4-(methylsulfanyl)phenyl]pyridine-3,5-dicarbonitrile], the melting point is 257 to 259 °C (dec.). This compound registered a Ki on hA3 AR of 388 ± 29 nM. Moreover, the Ki at hA2A AR is 227 ± 21 nM. For the same compound, at hA1 AR [1], the EC50 was 8.87 ± 0.64 nM and the “Efficacy (modulation of Forskolin-stimulated cAMP, hA1 CHO cells)” value worked out at 52 ± 4%. At hA2B AR [2], the Emax at 1 µM was 30% and it took 36 ± 3 nM to reach a half-maximal effect (EC50). This compound also returned a Ki at hA1 AR [3] of 8.32 ± 0.78 nM.

`CC(=O)Nc1ccc(-c2c(C#N)c(N)nc(SCc3ncc[nH]3)c2C#N)cc1` [Compound 6, N-(4-{2-Amino-3,5-dicyano-6-[(1H-imidazol-2-ylmethyl)sulfanyl]pyridin-4-yl}phenyl) acetamide] yielded a melting point of 275 to 278 °C. Further, the Ki at hA3 AR was 48 ± 4 nM. On hA2A AR, this compound yielded a Ki of 38 ± 3 nM. Moreover, on hA2B AR [2], the Emax at 1 µM is 100% and the half-maximal effective concentration (EC50) was determined as 12 ± 1 nM. Also, the “Pharmacological profile at hA2BAR” value on hA2B AR [2] (cAMP assay) is on record as “full agonist profile”. Further, the Ki at hA1 AR [3] came out at 83 ± 7 nM.

`C=C(C)COc1ccc(-c2c(C#N)c(N)nc(SCc3ncc[nH]3)c2C#N)cc1` [Compound 4, 2-Amino-6-[(1H-imidazol-2-ylmethyl)sulfanyl]-4-{4-[(2-methylprop-2-en-1-yl)oxy]phenyl} pyridine-3,5-dicarbonitrile] returned a melting point of 224 to 226 °C. On hA3 AR, this compound showed an inhibition at 1 µM of 8%. For the same compound, the “I% hA2A” value on hA2A AR is 1%. At hA2B AR [2], the Emax at 1 µM is 14% and the concentration giving a half-maximal response (EC50) was above 1000 nM. Besides, on hA1 AR [3], the affinity corresponds to a Ki of 77 ± 6 nM.

Take `Cc1ccc(-c2c(C#N)c(N)nc(SCc3ncc[nH]3)c2C#N)cc1` [Compound 10, 2-[(1H-Imidazol-2-il)metiltio]-6-ammino-4(4-metilfenil)piridina-3,5-dicarbonitrile]: the melting point was 259 to 261 °C (dec.). Moreover, affinity at hA3 AR was put at a Ki of 212 ± 19 nM. For the same compound, the inhibition constant Ki at hA2A AR amounted to 47 ± 4 nM. Moreover, on hA2B AR [2], the Emax at 1 µM is 78% and the EC50 stood at 78 ± 6 nM. For the same compound, on hA1 AR [3], the Ki is 5.32 ± 0.42 nM.
